Some test systems named below: A498 renal; HCT-116 colon; HOP-92 NSCLC; KM12 colon; MDA-MB-231 breast; NCI-H460 lung; RPMI-8226 leukemia; SF-539 CNS; SK-OV-3 ovarian; SN12C renal; SNB-75 CNS; HS 578T breast; SR leukemia.
Common to all, as to test: DTP human tumour cell line panel, 48 h

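Interpolation was linear, between the two tested concentrations surrounding the appropriate level; five concentrations were tested over 48 hours in 96-well plates. TGI denotes the concentration required for complete inhibition of growth.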

For 13 molecules, TGI results are on record in PubChem BioAssay (NCI).

In general, TGI refers to the concentration giving total growth inhibition. The low end stands for greater sensitivity of the cells, the high end for lower sensitivity of the cells. Turning to `CN(C)S(=O)(=O)/N=C/c1cccc(/C=N/S(=O)(=O)N(C)C)c1`, the TGI in the assay with A498 renal, in the assay on HCT-116 colon, in the assay on HOP-92 NSCLC, with KM12 colon, in the assay with MDA-MB-231 breast and in the assay with NCI-H460 lung was > 100 µM in each case. The TGI in the assay on RPMI-8226 leukemia was > 100 µM; in the assay with SF-539 CNS, > 100 µM; in the assay with SK-OV-3 ovarian it was > 100 µM; in the assay on SN12C renal, > 100 µM; in the assay with SNB-75 CNS, 92.8 µM.
On to `CN(C)CCN=C1Nc2ccccc2C(=S)N2CSCC12` (stereo unspecified), for which the TGI in the assay on A498 renal, with HCT-116 colon, in the assay on HS 578T breast, in the assay with KM12 colon, with MDA-MB-231 breast and in the assay with NCI-H460 lung was > 100 µM each time. The TGI in the assay on RPMI-8226 leukemia, with SK-OV-3 ovarian, in the assay with SN12C renal, in the assay on SNB-75 CNS and in the assay on SR leukemia was > 100 µM in each case.
As to `COC1=CCC=C(C[C@@H]2NCCc3cc(OC)c(OC)cc32)C1`, the TGI in the assay with A498 renal, with HCT-116 colon, in the assay on HOP-92 NSCLC, with KM12 colon, in the assay with NCI-H460 lung and in the assay on RPMI-8226 leukemia was > 100 µM throughout. Besides, the TGI with SF-539 CNS, in the assay on SK-OV-3 ovarian, in the assay on SN12C renal and in the assay with SNB-75 CNS was > 100 µM throughout.
Consider `CNC(=O)SCC(N)C(=O)O` (stereo unspecified), for which the TGI in the assay with A498 renal, in the assay on HCT-116 colon, in the assay with HOP-92 NSCLC, in the assay on KM12 colon, with NCI-H460 lung and in the assay on RPMI-8226 leukemia was > 100 µM in each case. For the same molecule, the total growth inhibition concentration (TGI) with SF-539 CNS, with SK-OV-3 ovarian, in the assay with SN12C renal and in the assay on SNB-75 CNS was > 100 µM in each case.
With `CNC(=O)N(CCC#N)CCCN(C(=O)NC)c1ccccc1`, the TGI in the assay on HCT-116 colon, with HOP-92 NSCLC, with KM12 colon, in the assay with MDA-MB-231 breast, with NCI-H460 lung and in the assay on RPMI-8226 leukemia was > 100 µM in each case. The TGI in the assay with SF-539 CNS, with SK-OV-3 ovarian, in the assay with SN12C renal, in the assay on SNB-75 CNS and in the assay on SR leukemia was > 100 µM each time.
As to `c1ccc([P+](Cc2ccccc2C[P+](c2ccccc2)(c2ccccc2)c2ccccc2)(c2ccccc2)c2ccccc2)cc1`, the TGI in the assay with A498 renal, in the assay on HCT-116 colon, with HS 578T breast, with KM12 colon, in the assay with MDA-MB-231 breast and in the assay on NCI-H460 lung was > 100 µM in each case. The TGI in the assay on RPMI-8226 leukemia, with SF-539 CNS, in the assay with SK-OV-3 ovarian, in the assay with SN12C renal and in the assay on SNB-75 CNS was > 100 µM throughout.
`c1ccc(-n2nc3ccc4nonc4c3n2)cc1`: the TGI with HCT-116 colon, with HOP-92 NSCLC, in the assay on KM12 colon, with MDA-MB-231 breast, in the assay with NCI-H460 lung and in the assay on RPMI-8226 leukemia was > 100 µM in each case. Moreover, the TGI in the assay on SF-539 CNS, in the assay on SK-OV-3 ovarian, with SN12C renal, in the assay with SNB-75 CNS and in the assay with SR leukemia was > 100 µM in each case.
With `CC(SC(=S)N1CCOCC1)C(=O)Nc1nnc(-c2ccccc2)o1` (stereo unspecified), the TGI in the assay on A498 renal, in the assay with HCT-116 colon, in the assay on HS 578T breast, in the assay on KM12 colon, with MDA-MB-231 breast and in the assay on NCI-H460 lung was > 100 µM in each case. The TGI in the assay on RPMI-8226 leukemia, with SF-539 CNS, in the assay on SK-OV-3 ovarian, in the assay on SN12C renal, in the assay with SNB-75 CNS and in the assay with SR leukemia was > 100 µM in each case.
Take `C/C=C/C1=CC(=O)C(O)C1O` (stereo unspecified): the TGI in the assay on A498 renal amounted to 16.7 µM; in the assay on HCT-116 colon, 96 µM; with HOP-92 NSCLC it was 66 µM; in the assay on KM12 colon, 39 µM; in the assay on NCI-H460 lung, 51.4 µM; in the assay on RPMI-8226 leukemia, 102 µM. Also, the TGI is 55.9 µM in the assay with SF-539 CNS, 130 µM in the assay on SK-OV-3 ovarian, 64 µM in the assay with SN12C renal and 67.5 µM with SNB-75 CNS.
Turning to `CC1=CC[C@@]2(CO)[C@@H]([C@@H]1C)[C@H]1CC[C@@H]3[C@@]4(C)CC[C@H](O)C(C)(C)[C@@H]4CC[C@@]3(C)[C@]1(C)C[C@@H]2O`, the TGI in the assay on A498 renal was 58.8 µM; in the assay with HCT-116 colon it was > 100 µM; with HOP-92 NSCLC it was 44 µM; with HS 578T breast, > 100 µM; in the assay with KM12 colon it was > 100 µM; in the assay on NCI-H460 lung it was > 100 µM. Also, the TGI in the assay with SK-OV-3 ovarian is 39.4 µM; in the assay on SN12C renal, > 100 µM.
With `COC(=O)/C=C1/CCC(C)(C(=O)NS(=O)(=O)c2ccc(C)cc2)C1(C)C` (stereo unspecified), the TGI in the assay with A498 renal, with HCT-116 colon, with HOP-92 NSCLC, in the assay on KM12 colon, in the assay with MDA-MB-231 breast and with NCI-H460 lung was > 100 µM throughout. Moreover, the TGI with RPMI-8226 leukemia, with SF-539 CNS, in the assay on SK-OV-3 ovarian and with SN12C renal was > 100 µM each time.
Regarding `CCOC(=O)[C@@]12C3C=CC(CC3)[C@]1(C(=O)c1ccccc1)C(=O)C(=O)N2c1ccccc1` (stereo partly specified), the TGI in the assay with A498 renal, with HCT-116 colon, with HOP-92 NSCLC, in the assay with KM12 colon, in the assay on MDA-MB-231 breast and in the assay with NCI-H460 lung was > 100 µM each time. For the same molecule, the TGI in the assay with RPMI-8226 leukemia, in the assay on SF-539 CNS, in the assay with SK-OV-3 ovarian, in the assay with SN12C renal and with SR leukemia was > 100 µM in each case.
In the case of `C=C[C@@H]1C[C@]2(C(=O)OC)Cc3nc4ccccc4nc3CC(C(=O)OC)=C2O1`, the TGI with A498 renal, with HCT-116 colon, with HS 578T breast, with KM12 colon, in the assay with MDA-MB-231 breast and in the assay on NCI-H460 lung was > 100 µM in each case. For the same molecule, the TGI in the assay on RPMI-8226 leukemia, with SF-539 CNS, with SK-OV-3 ovarian and in the assay with SN12C renal was > 100 µM each time.
